# Data taken from patent US8664220B2, “Polycyclic compounds as lysophosphatidic acid receptor antagonists” (Amira Pharmaceuticals, Inc., priority 2009, dated 2014).
# Biological target: T1, human LPA1 (Homo sapiens, UniProt Q92633)
# T1 construct: the full-length cDNA for human LPA1 was obtained by PCR of the reverse transcription reaction; expressed in transfected cells
# Assay: LPA1 calcium flux assay
# Type: cell-based
# Details: human LPA1 expressing CHO cells, stimulated with 10 nM LPA; read-out: HLPA1 Ca Flux IC50
# In short: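 CHO cells stably expressing human LPA1, serum-starved overnight and loaded with Calcium 4 dye in HBSS/20 mM Hepes/0.3% fatty-acid-free HSA, 1 h at 37 °C. Compounds pre-incubated 30 min at room temperature, then 10 nM LPA added; intracellular Ca2+ flux measured and IC50 from titration curves.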
# T1 sequence (Q92633 whole entry): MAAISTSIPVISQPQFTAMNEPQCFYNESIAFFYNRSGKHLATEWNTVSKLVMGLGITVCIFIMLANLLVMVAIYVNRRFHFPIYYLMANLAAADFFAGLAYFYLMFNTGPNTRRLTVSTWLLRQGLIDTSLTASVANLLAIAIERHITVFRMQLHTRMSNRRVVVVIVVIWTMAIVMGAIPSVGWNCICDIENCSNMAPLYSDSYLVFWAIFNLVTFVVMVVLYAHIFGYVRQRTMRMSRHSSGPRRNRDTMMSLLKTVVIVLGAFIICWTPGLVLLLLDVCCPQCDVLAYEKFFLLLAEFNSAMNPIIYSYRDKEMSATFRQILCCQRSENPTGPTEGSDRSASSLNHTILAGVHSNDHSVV
row,IC50 [nM],SMILES
1,< 300,"Cc1noc(-c2ccc(-c3ccc(C4(C(=O)O)CC4)cc3)cc2)c1Nc1cccc(Cc2cccc(F)c2)n1 [Compound 1-85, 1-(4′-{4-[6-(3-Fluoro-benzyl)-pyridin-2-ylamino]-3-methyl-isoxazol-5-yl}-biphenyl-4-yl)-cyclopropanecarboxylic acid]"
2,< 300,"Cc1noc(-c2ccc(-c3ccc(C4(C(=O)O)CC4)cc3)cc2)c1Nc1cccc(-c2ccncc2)n1 [Compound 1-99, 1-{4′-[4-([2,4′]Bipyridinyl-6-ylamino)-3-methyl-isoxazol-5-yl]-biphenyl-4-yl}-cyclopropanecarboxylic acid]"
3,< 300,"Cc1noc(-c2ccc(-c3ccc(C4(C(=O)O)CC4)cc3)cc2)c1Nc1cccc(OC(C)C2CCCCC2)n1 (centres unmarked) [Compound 1-140, 1-(4′-{4-[6-(1-Cyclohexyl-ethoxy)-pyridin-2-ylamino]-3-methyl-isoxazol-5-yl}-biphenyl-4-yl)-cyclopropanecarboxylic acid]"
4,300 to 1000,"Cc1noc(-c2ccc(-c3ccc(C4(C(=O)O)CC4)cc3)cc2)c1Nc1cccc(N(C)c2ccccc2)n1 [Compound 1-105, 1-(4′-{3-Methyl-4-[6-(methyl-phenyl-amino)-pyridin-2-ylamino]-isoxazol-5-yl}-biphenyl-4-yl)-cyclopropanecarboxylic acid]"
5,< 300,"COc1ncccc1-c1cccc(Nc2c(C)noc2-c2ccc(-c3ccc(C4(C(=O)O)CC4)cc3)cc2)n1 [Compound 1-97, 1-{4′-[4-(2′-Methoxy-[2,3′]bipyridinyl-6-ylamino)-3-methyl-isoxazol-5-yl]-biphenyl-4-yl}-cyclopropanecarboxylic acid]"
6,< 300,"Cc1noc(-c2ccc(-c3ccc(C4(C(=O)O)CC4)cc3)cc2)c1Nc1cccc(-c2cc(F)ccc2Cl)n1 [Compound 1-151, 1-(4′-{4-[6-(2-Chloro-5-fluoro-phenyl)-pyridin-2-ylamino]-3-methyl-isoxazol-5-yl}-biphenyl-4-yl)-cyclopropanecarboxylic acid]"
7,< 300,"Cc1noc(-c2ccc(-c3ccc(C4(C(=O)O)CC4)cc3)cc2)c1Nc1cccc(-c2ccccc2C(F)(F)F)c1 [Compound 1-101, 1-{4′-[3-Methyl-4-(2′-trifluoromethyl-biphenyl-3-ylamino)-isoxazol-5-yl]-biphenyl-4-yl}-cyclopropanecarboxylic acid]"
8,300 to 1000,"Cc1noc(-c2ccc(-c3ccc(C4(C(=O)O)CC4)cc3)cc2)c1Nc1cccc(C#CC2CCCC2)n1 [Compound 1-135, 1-{4′-[4-(6-Cyclopentylethynyl-pyridin-2-ylamino)-3-methyl-isoxazol-5-yl]-biphenyl-4-yl}-cyclopropanecarboxylic acid]"
9,< 300,"Cc1noc(-c2ccc(-c3ccc(C4(C(=O)O)CC4)cc3)cc2)c1Nc1cccc([S+]([O-])c2ccccc2)n1 (centres unmarked) [Compound 1-127, 1-{4′-[4-(6-Benzenesulfinyl-pyridin-2-ylamino)-3-methyl-isoxazol-5-yl]-biphenyl-4-yl}-cyclopropanecarboxylic acid]"
10,< 300,"Cc1noc(-c2ccc(-c3ccc(C4(C(=O)O)CC4)cc3)cc2)c1Nc1cccc(Cc2ccc(F)cc2)n1 [Compound 1-86, 1-(4′-{4-[6-(4-Fluoro-benzyl)-pyridin-2-ylamino]-3-methyl-isoxazol-5-yl}-biphenyl-4-yl)-cyclopropanecarboxylic acid]"
11,< 300,"COc1cccc(-c2cccc(Nc3c(C)noc3-c3ccc(-c4ccc(C5(C(=O)O)CC5)cc4)cc3)n2)c1 [Compound 1-88, 1-(4′-{4-[6-(3-Methoxy-phenyl)-pyridin-2-ylamino]-3-methyl-isoxazol-5-yl}-biphenyl-4-yl)-cyclopropanecarboxylic acid]"
12,< 300,"Cc1noc(-c2ccc(-c3ccc(C4(C(=O)O)CC4)cc3)cc2)c1Nc1cncc(-c2cccc(C(F)(F)F)c2)c1 [Compound 1-118, 1-(4′-{3-Methyl-4-[5-(3-trifluoromethyl-phenyl)-pyridin-3-ylamino]-isoxazol-5-yl}-biphenyl-4-yl)-cyclopropanecarboxylic acid]"
13,< 300,"Cc1noc(-c2ccc(-c3ccc(C4(C(=O)O)CCC4)cc3)cc2)c1Nc1cccc(-c2ccccc2)n1 [Compound 1-122, 1-{4′-[3-Methyl-4-(6-phenyl-pyridin-2-ylamino)-isoxazol-5-yl]-biphenyl-4-yl}-cyclobutanecarboxylic acid]"
14,< 300,"Cc1noc(-c2ccc(-c3ccc(C4(C(=O)O)CC4)cc3)cc2)c1Nc1cccc(N(C)c2ccccc2)c1 [Compound 1-106, 1-(4′-{3-Methyl-4-[3-(methyl-phenyl-amino)-phenylamino]-isoxazol-5-yl}-biphenyl-4-yl)-cyclopropanecarboxylic acid]"
15,< 300,"Cc1noc(-c2ccc(-c3ccc(C4(C(=O)O)CC4)cc3)cc2)c1Nc1cccc(-c2cccc(F)c2F)n1 [Compound 1-152, 1-(4′-{4-[6-(2,3-Difluoro-phenyl)-pyridin-2-ylamino]-3-methyl-isoxazol-5-yl}-biphenyl-4-yl)-cyclopropanecarboxylic acid]"
16,< 300,"Cc1noc(-c2ccc(-c3ccc(C4(C(=O)O)CC4)cc3)cc2)c1Nc1cc(-c2ccccc2)ccn1 [Compound 1-116, 1-{4′-[3-Methyl-4-(4-phenyl-pyridin-2-ylamino)-isoxazol-5-yl]-biphenyl-4-yl}-cyclopropanecarboxylic acid]"

# Continued, molecule first:
row,SMILES,IC50 [nM]
1,"Cc1noc(-c2ccc(-c3ccc(C4(C(=O)O)CC4)cc3)cc2)c1Nc1cccc(OC2CCC2)n1 [Compound 1-139, 1-{4′-[4-(6-Cyclobutoxy-pyridin-2-ylamino)-3-methyl-isoxazol-5-yl]-biphenyl-4-yl}-cyclopropanecarboxylic acid]",< 300
2,"Cc1noc(-c2ccc(-c3ccc(C4(C(=O)O)CC4)cc3)cc2)c1C(NS(C)(=O)=O)c1cn(Cc2ccccc2)nn1 (centres unmarked) [Compound 1-47, 1-(4′-{4-[(1-Benzyl-1H-[1,2,3]triazol-4-yl)-methanesulfonylamino-methyl]-3-methyl-isoxazol-5-yl}-biphenyl-4-yl)-cyclopropanecarboxylic acid]",> 50000
3,"Cc1noc(-c2ccc(-c3ccc(C4(C(=O)O)CC4)cc3)cc2)c1C(O)c1cccc(Cc2ccccc2)c1 (centres unmarked) [Compound 1-58, 1-(4′-{4-[(3-Benzyl-phenyl)-hydroxy-methyl]-3-methyl-isoxazol-5-yl}-biphenyl-4-yl)-cyclopropanecarboxylic acid]",< 300
4,"Cc1noc(-c2ccc(-c3ccc(C4(CC(=O)O)CC4)cc3)cc2)c1C(O)c1nnc(-c2ccccc2)o1 (centres unmarked) [Compound 1-39, [1-(4′-{4-[Hydroxy-(5-phenyl-[1,3,4]oxadiazol-2-yl)-methyl]-3-methyl-isoxazol-5-yl}-biphenyl-4-yl)-cyclopropyl]-acetic acid]",< 300
5,"Cc1noc(-c2ccc(-c3ccc(C4(C(=O)O)CC4)cc3)cc2)c1Nc1cccc(-c2ccccc2)n1 [Compound 1-68, 1-{4′-[3-Methyl-4-(6-phenyl-pyridin-2-ylamino)-isoxazol-5-yl]-biphenyl-4-yl}-cyclopropanecarboxylic acid]",< 300
6,"Cc1noc(-c2ccc(-c3ccc(CC(=O)O)cc3)cc2)c1C(O)c1cn(Cc2cccc(C(F)(F)F)c2)nn1 (centres unmarked) [Compound 1-51, [4′-(4-{Hydroxy-[1-(3-trifluoromethyl-benzyl)-1H-[1,2,3]triazol-4-yl]-methyl}-3-methyl-isoxazol-5-yl)-biphenyl-4-yl]acetic acid]",> 50000
7,"Cc1noc(-c2ccc(-c3ccc(C4(C(=O)O)CC4)cc3)cc2)c1C(O)c1cn(Cc2cccc(C(F)(F)F)c2)nn1 (centres unmarked) [Compound 1-50, 1-[4′-(4-{Hydroxy-[1-(3-trifluoromethyl-benzyl)-1H-[1,2,3]triazol-4-yl]-methyl}-3-methyl-isoxazol-5-yl)-biphenyl-4-yl]-cyclopropanecarboxylic acid]",1000 to 50000
8,"Cc1noc(-c2ccc(-c3ccc(C4(C(=O)O)CC4)cc3)cc2)c1C(O)c1cncc(Cc2ccccc2)c1 (centres unmarked) [Compound 1-59, 1-(4′-{4-[(5-Benzyl-pyridin-3-yl)-hydroxy-methyl]-3-methyl-isoxazol-5-yl}-biphenyl-4-yl)-cyclopropanecarboxylic acid]",< 300
9,"Cc1noc(-c2ccc(-c3ccc(C4(C(=O)O)CC4)cc3)cc2)c1NC1CCN(Cc2ccccc2)CC1 [Compound 1-36, 1-{4′-[4-(1-Benzyl-piperidin-4-ylamino)-3-methyl-isoxazol-5-yl]-biphenyl-4-yl}-cyclopropanecarboxylic acid]",1000 to 50000
10,"Cc1noc(-c2ccc(-c3ccc(C4(C(=O)O)CC4)cc3)cc2)c1CN1CC(c2ccccc2)CC1=O (centres unmarked) [Compound 1-7, 1-{4′-[3-Methyl-4-(2-oxo-4-phenyl-pyrrolidin-1-ylmethyl)-isoxazol-5-yl]-biphenyl-4-yl}-cyclopropanecarboxylic acid]",< 300
11,"Cc1noc(-c2ccc(-c3ccc(C4(C(=O)O)CC4)cc3)cc2)c1[C@@H](O)c1cn(Cc2ccccc2Cl)nn1 [Compound 1-63, 1-[4′-(4-{(R)-[1-(2-Chloro-benzyl)-1H-[1,2,3]triazol-4-yl]-hydroxy-methyl}-3-methyl-isoxazol-5-yl)-biphenyl-4-yl]-cyclopropanecarboxylic acid]",< 300
12,"Cc1noc(-c2ccc(-c3ccc(C4(C(=O)O)CC4)cc3)cc2)c1CN1C(=O)O[C@H](c2ccccc2)[C@@H]1C [Compound 1-16, 1-{4′-[3-Methyl-4-((4S,5R)-4-methyl-2-oxo-5-phenyl-oxazolidin-3-ylmethyl)-isoxazol-5-yl]-biphenyl-4-yl}-cyclopropanecarboxylic acid]",< 300
13,"Cc1noc(-c2ccc(-c3ccc(C4(C(=O)O)CC4)cc3)cc2)c1Cn1cc(-c2ccccc2)cn1 [Compound 1-23, 1-{4′-[3-Methyl-4-(4-phenyl-pyrazol-1-ylmethyl)-isoxazol-5-yl]-biphenyl-4-yl}-cyclopropanecarboxylic acid]",< 300
